Where a name gives a salt, the structure may show the parent alone.
These compounds were tested against human D-amino acid oxidase (hDAAO) (Homo sapiens (Human), UniProt P14920) (assay: In vitro human D-amino acid oxidase (hDAAO) activity, D-Serine/Amplex Red fluorescence). Settings: D-Serine substrate, 20 min.
Format: biochemical
Protocol: The hDAAO inhibitory activities were measured by using D-Serine as a substrate to produce H2O2. The produced H2O2 would be oxidized by peroxidase, and the produced free radicals would further react with Amplex Red reagent to emit fluorescence. The intensity of fluorescence at 590 nm would be measured to represent the activity of hDAAO. All compounds were dissolved in DMSO. Each compound was diluted with DMSO in 3-fold serial dilution to create a dose response curve. Each sample was added in triplicate, 1 µL/well, into 96-well black plates. Positive control wells were added with 1 μL of DMSO. Then 49 μL of assay buffer (100 mM Tris-HCl, pH 8.5) containing 1.2 ng/mL hDAAO, 900 nM FAD, 0.2 units/mL HRP, and 100 μM Amplex Red was added to each well of the plate using a multichannel pipette. Next, 50 μL of 100 mM D-Serine in assay buffer was added. The reaction plates were then incubated in the dark at room temperature. The fluorescence readout was detected at 0 and 20 mins by Molecular Device Gemini EM fluorescence reader using the following settings: excitation filter 530 nm, and emission filter 590 nm. The percentage of inhibition values for each well was calculated with the following equation: The percentage of inhibition=(fluorescence sample, 20 min−fluorescence sample, 0 min)/(fluorescence DMSO, 20 min−fluorescence DMSO, 0 min)×100%
The nonlinear curve fitting model in GraphPad Prism was used to calculate IC50 value for each compound.

Sequence of human D-amino acid oxidase (hDAAO) (P14920 whole entry): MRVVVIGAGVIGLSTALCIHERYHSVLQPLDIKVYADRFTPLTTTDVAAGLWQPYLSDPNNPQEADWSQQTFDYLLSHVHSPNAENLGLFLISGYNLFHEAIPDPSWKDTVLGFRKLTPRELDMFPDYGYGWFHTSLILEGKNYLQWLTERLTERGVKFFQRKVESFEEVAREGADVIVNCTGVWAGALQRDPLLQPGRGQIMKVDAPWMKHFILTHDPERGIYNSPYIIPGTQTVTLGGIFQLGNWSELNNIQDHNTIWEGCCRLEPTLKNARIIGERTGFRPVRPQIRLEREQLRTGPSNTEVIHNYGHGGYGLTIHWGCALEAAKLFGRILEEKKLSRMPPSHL

Row | Compound | IC50 [nM]
1 | 3-((3-((3-((3-((3-((3-((3-((1H-pyrrole-2-carbonyl)oxy)-4,5-dihydroxybenzoyl)oxy)-4,5-dihydroxybenzoyl)oxy)-4,5-dihydroxybenzoyl)oxy)-4,5-dihydroxybenzoic acid [Compound 28] | 82
2 | O=C(O)c1cc(O)c(O)c(OC(=O)c2cc(O)c(O)c(OC(=O)c3cc(O)c(O)c(OC(=O)c4cc(O)c(O)c(OC(=O)c5cc(O)c(O)c(OC(=O)c6cc(O)c(O)c(OC(=O)c7cc(O)c(O)c(O)c7)c6)c5)c4)c3)c2)c1 [Compound 22, 3-((3-((3-((3-((3-((3,4-dihydroxy-5-((3,4,5-trihydroxybenzoyl)oxy)benzoyl)oxy)-4,5-dihydroxybenzoyl)oxy)-4,5-dihydroxybenzoyl)oxy)-4,5-dihydroxybenzoyl)oxy)-4,5-dihydroxybenzoyl)oxy)-4,5-dihydroxybenzoic acid] | 63
3 | O=C(O)c1cc(O)c(O)c(OC(=O)c2cc(O)c(O)c(OC(=O)c3cc(O)c(O)c(OC(=O)c4cc(O)c(O)c(OC(=O)c5cc(O)c(O)c(OC(=O)c6ccc[nH]6)c5)c4)c3)c2)c1 [Compound 25, 3-((3-((3-((3-((3-((1H-pyrrole-2-carbonyl)oxy)-4,5-dihydroxybenzoyl)oxy)-4,5-dihydroxybenzoyl)oxy)-4,5-dihydroxybenzoyl)oxy)-4,5-dihydroxybenzoyl)oxy)-4,5-dihydroxybenzoic acid] | 89
4 | O=C(O)c1cc(O)c(O)c(OC(=O)c2cc(O)c(O)c(OC(=O)c3cc(O)c(O)c(OC(=O)c4cc(O)c(O)c(OC(=O)c5cc(O)c(O)c(OC(=O)c6cc(CCc7ccccc7)n[nH]6)c5)c4)c3)c2)c1 [Compound 34, 3-((3-((3-((3-((3,4-dihydroxy-5-((3-phenethyl-1H-pyrazole-5-carbonyl)oxy)benzoyl)oxy)-4,5-dihydroxybenzoyl)oxy)-4,5-dihydroxybenzoyl)oxy)-4,5-dihydroxybenzoyl)oxy)-4,5-dihydroxybenzoic acid] | 68
5 | O=C(O)c1cc(O)c(O)c(OC(=O)c2cc(O)c(O)c(OC(=O)c3cc(O)c(O)c(OC(=O)c4cc(O)c(O)c(OC(=O)c5cc(O)c(O)c(OC(=O)c6cc(CCc7cccc8c7CCCC8)n[nH]6)c5)c4)c3)c2)c1 [Compound 42, 3-((3-((3-((3-((3,4-dihydroxy-5-((3-(2-(5,6,7,8-tetrahydronaphthalen-1-yl)ethyl)-1H-pyrazole-5-carbonyl)oxy)benzoyl)oxy)-4,5-dihydroxybenzoyl)oxy)-4,5-dihydroxybenzoyl)oxy)-4,5-dihydroxybenzoyl)oxy)-4,5-dihydroxybenzoic acid] | 31
6 | O=C(O)c1cc(O)c(O)c(OC(=O)c2cc(O)c(O)c(OC(=O)c3cc(O)c(O)c(OC(=O)c4cc(O)c(O)c(OC(=O)c5cc(O)c(O)c(OC(=O)c6cc(CCc7ccc(F)cc7)n[nH]6)c5)c4)c3)c2)c1 [Compound 50, 3-((3-((3-((3-((3-((3-(4-fluorophenethyl)-1H-pyrazole-5-carbonyl)oxy)-4,5-dihydroxybenzoyl)oxy)-4,5-dihydroxybenzoyl)oxy)-4,5-dihydroxybenzoyl)oxy)-4,5-dihydroxybenzoyl)oxy)-4,5-dihydroxybenzoic acid] | 38
7 | O=C(O)c1cc(O)c(O)c(OC(=O)c2cc(O)c(O)c(OC(=O)c3cc(O)c(O)c(OC(=O)c4cc(O)c(O)c(OC(=O)c5cc(O)c(O)c(OC(=O)c6cc(CCc7cc(F)cc(F)c7)n[nH]6)c5)c4)c3)c2)c1 [Compound 58, 3-((3-((3-((3-((3-((3-(3,5-difluorophenethyl)-1H-pyrazole-5-carbonyl)oxy)-4,5-dihydroxybenzoyl)oxy)-4,5-dihydroxybenzoyl)oxy)-4,5-dihydroxybenzoyl)oxy)-4,5-dihydroxybenzoyl)oxy)-4,5-dihydroxybenzoic acid] | 33
8 | O=C(Oc1cccnc1)c1cc(O)c(O)c(OC(=O)c2cc(O)c(O)c(OC(=O)c3cc(O)c(O)c(OC(=O)c4cc(O)c(O)c(OC(=O)c5cc(O)c(O)c(O)c5)c4)c3)c2)c1 [Compound 94, 5-((5-((5-((2,3-dihydroxy-5-((pyridin-3-yloxy)carbonyl)phenoxy)carbonyl)-2,3-dihydroxyphenoxy)carbonyl)-2,3-dihydroxyphenoxy)carbonyl)-2,3-dihydroxyphenyl 3,4,5-trihydroxybenzoate hydrochloride salt] | 42
9 | O=C(Oc1cc(C(=O)Oc2cc(C(=O)Oc3cc(C(=O)Oc4cc(C(=O)OC5CCCCC5)cc(O)c4O)cc(O)c3O)cc(O)c2O)cc(O)c1O)c1cc(O)c(O)c(O)c1 [Compound 96, Cyclohexyl 3-((3-((3-((3,4-dihydroxy-5-((3,4,5-trihydroxybenzoyl)oxy)benzoyl)oxy)-4,5-dihydroxybenzoyl)oxy)-4,5-dihydroxybenzoyl)oxy)-4,5-dihydroxybenzoate] | 26
10 | O=C(Oc1cc(C(=O)Oc2cc(C(=O)Oc3cc(C(=O)Oc4cc(C(=O)OC5CC5)cc(O)c4O)cc(O)c3O)cc(O)c2O)cc(O)c1O)c1cc(O)c(O)c(O)c1 [Compound 98, 5-((5-((5-((5-(cyclopropoxycarbonyl)-2,3-dihydroxyphenoxy)carbonyl)-2,3-dihydroxyphenoxy)carbonyl)-2,3-dihydroxyphenoxy)carbonyl)-2,3-dihydroxyphenyl 3,4,5-trihydroxybenzoate] | 33
11 | O=C(Oc1cc(C(=O)Oc2cc(C(=O)Oc3cc(C(=O)Oc4cc(C(=O)OC5CCCCCC5)cc(O)c4O)cc(O)c3O)cc(O)c2O)cc(O)c1O)c1cc(O)c(O)c(O)c1 [Compound 100, cycloheptyl 3-((3-((3-((3,4-dihydroxy-5-((3,4,5-trihydroxybenzoyl)oxy)benzoyl)oxy)-4,5-dihydroxybenzoyl)oxy)-4,5-dihydroxybenzoyl)oxy)-4,5-dihydroxybenzoate] | 19
12 | O=C(Oc1cc(OC(=O)c2cc(O)c(O)c(OC(=O)c3cc(O)c(O)c(OC(=O)c4cc(O)c(O)c(OC(=O)c5cc(O)c(O)c(OC(=O)c6cc(O)c(O)c(O)c6)c5)c4)c3)c2)cc(OC(=O)c2cc(O)c(O)c(OC(=O)c3cc(O)c(O)c(OC(=O)c4cc(O)c(O)c(OC(=O)c5cc(O)c(O)c(OC(=O)c6cc(O)c(O)c(O)c6)c5)c4)c3)c2)c1)c1ccccc1 [Compound 103, 5-(benzoyloxy)-1,3-phenylene bis(3-((3-((3-((3,4-dihydroxy-5-((3,4,5-trihydroxybenzoyl)oxy)benzoyl)oxy)-4,5-dihydroxybenzoyl)oxy)-4,5-dihydroxybenzoyl)oxy)-4,5-dihydroxybenzoate)] | 7
13 | O=C(Oc1cc(OC(=O)c2cc(O)c(O)c(OC(=O)c3cc(O)c(O)c(OC(=O)c4cc(O)c(O)c(OC(=O)c5cc(O)c(O)c(OC(=O)c6cc(O)c(O)c(O)c6)c5)c4)c3)c2)cc(OC(=O)c2cc(CCc3ccc(C(F)(F)F)cc3)n[nH]2)c1)c1cc(O)c(O)c(OC(=O)c2cc(O)c(O)c(OC(=O)c3cc(O)c(O)c(OC(=O)c4cc(O)c(O)c(OC(=O)c5cc(O)c(O)c(O)c5)c4)c3)c2)c1 [Compound 107, 5-((3-(4-(trifluoromethyl)phenethyl)-1H-pyrazole-5-carbonyl)oxy)-1,3-phenylene bis(3-((3-((3-((3,4-dihydroxy-5-((3,4,5-trihydroxybenzoyl)oxy)benzoyl)oxy)-4,5-dihydroxybenzoyl)oxy)-4,5-dihydroxybenzoyl)oxy)-4,5-dihydroxybenzoate)] | 7
14 | O=C(Oc1cc(C(=O)O[C@H]2OC[C@@H](OC(=O)c3cc(O)c(O)c(OC(=O)c4cc(O)c(O)c(O)c4)c3)[C@H](OC(=O)c3cc(O)c(O)c(OC(=O)c4cc(O)c(O)c(O)c4)c3)[C@H]2OC(=O)c2cc(O)c(O)c(OC(=O)c3cc(O)c(O)c(O)c3)c2)cc(O)c1O)c1cc(O)c(O)c(O)c1 [Compound 117, (2R,3R,4S,5R)-tetrahydro-2H-pyran-2,3,4,5-tetrayl tetrakis(3,4-dihydroxy-5-((3,4,5-trihydroxybenzoyl)oxy)benzoate)] | 9
15 | O=C(Oc1cc(C(=O)Oc2cc(C(=O)O[C@H]3OC[C@@H](OC(=O)c4cc(O)c(O)c(OC(=O)c5cc(O)c(O)c(OC(=O)c6cc(O)c(O)c(O)c6)c5)c4)[C@H](OC(=O)c4cc(O)c(O)c(OC(=O)c5cc(O)c(O)c(OC(=O)c6cc(O)c(O)c(O)c6)c5)c4)[C@H]3OC(=O)c3cc(O)c(O)c(OC(=O)c4cc(O)c(O)c(OC(=O)c5cc(O)c(O)c(O)c5)c4)c3)cc(O)c2O)cc(O)c1O)c1cc(O)c(O)c(O)c1 [Compound 119, (2R,3R,4S,5R)-tetrahydro-2H-pyran-2,3,4,5-tetrayl tetrakis(3-((3,4-dihydroxy-5-((3,4,5-trihydroxybenzoyl)oxy)benzoyl)oxy)-4,5-dihydroxybenzoate)] | 5
